“Also recorded” adds a separate entry of the source.
Tests used:
V1a (h) = V1a (h) (Homo sapiens, UniProt P37288); experiment: Cerep Express Panel, agonist radioligand; type: binding; conditions: read-out: % Inhibition of reference (10 µM)
[1] = system: MM1S multiple myeloma cells; experiment: Fluorescent cell-viability assay (PrestoBlue); type: cell-based, human
Method: MM1S myeloma cells were cultured in RMPI with 10% heat-inactivated FCS and 2 mM glutamine under standard conditions. […] Viability was measured using PrestoBlue reagent and normalized to a vehicle control. Data were plotted and IC50 values were calculated in Prism (v5.1).

H3K4me3 in MM1S cells = experiment: Quantitative ChIP-seq (ChIP-Rx spike-in) of H3K4me3; type: cell-based, human; conditions: 50 μM, 7 days, spike-in quantification
Method: Immediately prior to fixation in 1% formaldehyde, three million sf9 cells were added to each sample. Cells were fixed for 8 min at room temperature, lysed, and sonicated on a Bioruptor Pico for 3 repeats of 10 cycles of 30 s on/30 s off. The sonicated lysates were incubated for 1 hr at 4°C with pre-blocked protein A Sepharose beads, prior to overnight incubation with 1 μg of anti-H3K4me3 antibody (Millipore cat no. 07–473 lot no. 2207281). Pre-blocked Sepharose beads were added for 1 hr, the beads washed, and DNA was eluted followed by Proteinase K digestion. Libraries were constructed using the NebNext Ultra DAN Kit (NEB) and sequenced on an Illumina NextSeq 500 platform. Libraries were also generated for the input of each condition and sequenced in a similar manner.
Sequencing reads were aligned to the concatenated human/sf9 genome generated earlier using Bowtie (version 1.1.2), allowing only reads that matched uniquely to one location. The number of reads mapping to the human and sf9 genomes separately in each condition was calculated. The number of sf9 reads-per-million total aligned reads was calculated for each pull-down condition and corrected according to the percentage of sf9 reads in the corresponding input samples. A scaling factor for normalization was then calculated for each pull-down based on the reciprocal of the corrected sf9 reads per million for each sample. […]

alpha 1 (non-selective) = experiment: Cerep Express Panel, antagonist radioligand; type: binding
dopamine transporter (h) = target: T1, dopamine transporter (h) (Homo sapiens, UniProt Q01959); experiment: Cerep Express Panel, antagonist radioligand; type: binding; conditions: read-out: % Inhibition of reference (10 µM)
T1 construct: CEREP

FIH = FIH (Homo sapiens, UniProt Q9NWT6); experiment: 2-Oxoglutarate oxygenase assay panel, MALDI-TOF assay; type: biochemical
5-HT1B = 5-HT1B (Rattus norvegicus, UniProt P28564); experiment: Cerep Express Panel, antagonist radioligand; type: binding; conditions: read-out: % Inhibition of reference (10 µM)
NK2 (h) = NK2 (h) (Homo sapiens, UniProt P21452); experiment: Cerep Express Panel, agonist radioligand; type: binding; conditions: read-out: % Inhibition of reference (10 µM)
MINA53 = MINA53 (Homo sapiens, UniProt Q8IUF8); experiment: 2-Oxoglutarate oxygenase assay panel, RapidFire MS assay; type: biochemical; conditions: read-out: pIC50 MINA53 (converted)
EP4 (h) = EP4 (h) (Homo sapiens, UniProt P35408); experiment: Cerep Express Panel, agonist radioligand; type: binding; conditions: read-out: % Inhibition of reference (10 µM)
delta 2 (DOP) (h) = delta 2 (DOP) (h) (Homo sapiens, UniProt P41143); experiment: Cerep Express Panel, agonist radioligand; type: binding; conditions: read-out: % Inhibition of reference (10 µM)
Y2 (h) = Y2 (h) (Homo sapiens, UniProt P49146); experiment: Cerep Express Panel, agonist radioligand; type: binding; conditions: read-out: % Inhibition of reference (10 µM)
KV channel = experiment: Cerep Express Panel, antagonist radioligand; type: binding
BZD (central) = experiment: Cerep Express Panel, agonist radioligand; type: binding
ETA (h) = ETA (h) (Homo sapiens, UniProt P25101); experiment: Cerep Express Panel, agonist radioligand; type: binding; conditions: read-out: % Inhibition of reference (10 µM)
M1 (h) = M1 (h) (Homo sapiens, UniProt P11229); experiment: Cerep Express Panel, antagonist radioligand; type: binding; conditions: read-out: % Inhibition of reference (10 µM)
M3 (h) = M3 (h) (Homo sapiens, UniProt P20309); experiment: Cerep Express Panel, antagonist radioligand; type: binding; conditions: read-out: % Inhibition of reference (10 µM)
Caco-2 cells = experiment: Caco-2 cell permeability assay; type: in vitro ADME
Method: The higher concentration (60 μM) required for cellular activity could be ascribed to different reasons: first to the partial competition with the co-factor 2-OG, the physiological intracellular concentrations of which could be up to […] levels ([Thirstrup et al., 2011]); second to an estimated moderate-to-low cell permeability of KDOAM25. […] Together these effects could explain the partial loss of potency observed in the IF cell assay.

[2] = system: cell line derived from human mesenchymal stem cells; experiment: Cell viability, mesenchymal stem cells; type: cell-based; conditions: treated for 7 days
From the text: Figure S2 related to Figure 1 KDM5B Biochemical assay at different 2 -OG
Stem Cells (B) treated for 7 days. Data plotted represents the mean and standard deviation of four independent
2OG Concentration IC50 (mM) Ki […]

KDM5A-D = experiment: Biochemical inhibition of the KDM5 sub-family in vitro
H2 (h) = H2 (h) (Homo sapiens, UniProt P25021); experiment: Cerep Express Panel, antagonist radioligand; type: binding; conditions: read-out: % Inhibition of reference (10 µM)
NK3 (h) = NK3 (h) (Homo sapiens, UniProt P29371); experiment: Cerep Express Panel, antagonist radioligand; type: binding; conditions: read-out: % Inhibition of reference (10 µM)
[3] = system: Ca2+ channel (L, verapamil site) (phenylalkylamine); experiment: Cerep Express Panel, antagonist radioligand; type: binding
Na+ channel (site 2) = experiment: Cerep Express Panel, antagonist radioligand; type: binding; conditions: 10 µM
5-HT transporter (h) = target: T2, 5-HT transporter (h) (Homo sapiens, UniProt P31645); experiment: Cerep Express Panel, antagonist radioligand; type: binding; conditions: read-out: % Inhibition of reference (10 µM)
T2 construct: CEREP

5-HT7 (h) = 5-HT7 (h) (Homo sapiens, UniProt P34969); experiment: Cerep Express Panel, agonist radioligand; type: binding; conditions: read-out: % Inhibition of reference (10 µM)
5-HT2A (h) = 5-HT2A (h) (Homo sapiens, UniProt P28223); experiment: Cerep Express Panel, antagonist radioligand; type: binding; conditions: read-out: % Inhibition of reference (10 µM)
NTS1 (NT1) (h) = NTS1 (NT1) (h) (Homo sapiens, UniProt P30989); experiment: Cerep Express Panel, agonist radioligand; type: binding; conditions: read-out: % Inhibition of reference (10 µM)
B2 (h) = B2 (h) (Homo sapiens, UniProt P30411); experiment: Cerep Express Panel, agonist radioligand; type: binding; conditions: read-out: % Inhibition of reference (10 µM)

Sequence of MINA53 (Q8IUF8 whole entry, species assumed): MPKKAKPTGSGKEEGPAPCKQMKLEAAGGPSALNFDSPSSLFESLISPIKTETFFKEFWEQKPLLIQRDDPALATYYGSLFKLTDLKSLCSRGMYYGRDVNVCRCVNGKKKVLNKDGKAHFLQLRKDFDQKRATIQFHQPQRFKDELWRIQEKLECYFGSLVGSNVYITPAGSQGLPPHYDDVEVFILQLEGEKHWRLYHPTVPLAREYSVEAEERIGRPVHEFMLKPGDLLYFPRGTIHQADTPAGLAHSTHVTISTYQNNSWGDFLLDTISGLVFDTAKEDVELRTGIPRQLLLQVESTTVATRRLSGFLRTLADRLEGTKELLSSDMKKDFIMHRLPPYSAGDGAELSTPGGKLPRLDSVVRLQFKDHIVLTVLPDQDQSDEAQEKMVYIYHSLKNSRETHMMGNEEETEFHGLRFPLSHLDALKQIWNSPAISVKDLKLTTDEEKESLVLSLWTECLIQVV
T1 sequence (Q01959 whole entry): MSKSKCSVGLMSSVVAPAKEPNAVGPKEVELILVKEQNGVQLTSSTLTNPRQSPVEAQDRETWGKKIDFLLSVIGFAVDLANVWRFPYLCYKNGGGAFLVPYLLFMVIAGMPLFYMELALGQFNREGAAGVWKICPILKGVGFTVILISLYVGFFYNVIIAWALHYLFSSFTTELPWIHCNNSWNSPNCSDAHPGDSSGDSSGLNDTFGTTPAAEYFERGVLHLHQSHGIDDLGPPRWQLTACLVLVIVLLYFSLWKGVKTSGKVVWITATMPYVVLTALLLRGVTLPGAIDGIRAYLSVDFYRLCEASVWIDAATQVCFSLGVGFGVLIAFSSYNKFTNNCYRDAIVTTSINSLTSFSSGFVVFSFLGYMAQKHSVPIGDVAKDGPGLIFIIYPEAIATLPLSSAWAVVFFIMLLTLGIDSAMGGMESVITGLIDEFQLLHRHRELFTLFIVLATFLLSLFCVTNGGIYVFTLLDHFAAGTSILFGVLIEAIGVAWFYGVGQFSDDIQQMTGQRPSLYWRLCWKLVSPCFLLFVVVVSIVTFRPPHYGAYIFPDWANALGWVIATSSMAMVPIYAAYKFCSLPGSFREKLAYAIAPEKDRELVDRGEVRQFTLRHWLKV
T2 sequence (P31645 whole entry): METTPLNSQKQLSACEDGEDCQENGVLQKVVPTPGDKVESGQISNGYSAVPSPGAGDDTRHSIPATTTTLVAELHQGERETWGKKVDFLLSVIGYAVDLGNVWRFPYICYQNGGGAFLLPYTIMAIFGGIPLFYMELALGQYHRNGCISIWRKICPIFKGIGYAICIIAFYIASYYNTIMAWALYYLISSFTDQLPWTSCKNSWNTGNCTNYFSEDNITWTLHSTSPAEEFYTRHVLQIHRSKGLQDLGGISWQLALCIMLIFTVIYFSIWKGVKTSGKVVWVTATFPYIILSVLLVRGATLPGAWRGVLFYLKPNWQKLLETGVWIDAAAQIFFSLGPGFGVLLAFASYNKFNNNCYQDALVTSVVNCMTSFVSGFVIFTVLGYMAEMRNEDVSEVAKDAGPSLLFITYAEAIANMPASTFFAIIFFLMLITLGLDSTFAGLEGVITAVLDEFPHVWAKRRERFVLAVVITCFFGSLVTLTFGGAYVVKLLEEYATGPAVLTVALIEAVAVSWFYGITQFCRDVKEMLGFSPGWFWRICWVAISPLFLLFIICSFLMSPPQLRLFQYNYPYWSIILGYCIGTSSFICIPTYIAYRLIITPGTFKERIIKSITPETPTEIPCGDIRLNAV
Sequence of 5-HT1B (P28564 whole entry): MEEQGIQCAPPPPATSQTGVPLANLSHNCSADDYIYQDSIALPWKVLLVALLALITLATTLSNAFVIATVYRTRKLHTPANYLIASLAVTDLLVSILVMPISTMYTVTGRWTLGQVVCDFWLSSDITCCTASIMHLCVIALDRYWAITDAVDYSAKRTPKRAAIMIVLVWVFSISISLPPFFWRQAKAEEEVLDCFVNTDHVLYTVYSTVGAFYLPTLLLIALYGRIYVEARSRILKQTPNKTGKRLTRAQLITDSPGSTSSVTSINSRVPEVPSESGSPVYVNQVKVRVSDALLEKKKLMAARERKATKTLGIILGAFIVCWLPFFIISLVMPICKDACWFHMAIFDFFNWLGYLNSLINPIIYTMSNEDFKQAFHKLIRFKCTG
Sequence of V1a (h) (P37288 whole entry): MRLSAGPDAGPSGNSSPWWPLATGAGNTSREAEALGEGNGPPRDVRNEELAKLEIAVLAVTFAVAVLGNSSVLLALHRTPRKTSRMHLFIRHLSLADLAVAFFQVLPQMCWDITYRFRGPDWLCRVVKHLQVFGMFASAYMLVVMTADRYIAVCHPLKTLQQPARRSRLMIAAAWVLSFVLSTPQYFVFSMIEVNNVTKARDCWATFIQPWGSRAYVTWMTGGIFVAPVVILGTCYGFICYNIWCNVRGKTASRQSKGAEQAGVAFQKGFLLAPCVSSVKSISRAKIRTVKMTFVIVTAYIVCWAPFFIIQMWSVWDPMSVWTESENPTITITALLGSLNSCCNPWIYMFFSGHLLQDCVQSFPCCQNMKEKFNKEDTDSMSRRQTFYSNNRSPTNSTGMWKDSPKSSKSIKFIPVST
Sequence of NK3 (h) (P29371 whole entry): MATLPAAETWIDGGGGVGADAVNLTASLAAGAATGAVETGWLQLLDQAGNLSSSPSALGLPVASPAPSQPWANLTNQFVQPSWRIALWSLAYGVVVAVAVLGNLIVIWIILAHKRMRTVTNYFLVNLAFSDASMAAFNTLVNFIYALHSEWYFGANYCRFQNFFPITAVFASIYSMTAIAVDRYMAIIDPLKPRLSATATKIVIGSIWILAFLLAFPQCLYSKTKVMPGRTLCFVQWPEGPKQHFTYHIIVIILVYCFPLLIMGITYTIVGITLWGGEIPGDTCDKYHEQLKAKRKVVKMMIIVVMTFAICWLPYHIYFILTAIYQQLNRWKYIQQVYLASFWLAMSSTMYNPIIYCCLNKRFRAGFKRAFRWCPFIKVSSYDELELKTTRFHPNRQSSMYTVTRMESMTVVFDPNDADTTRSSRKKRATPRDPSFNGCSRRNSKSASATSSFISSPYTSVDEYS
Sequence of NK2 (h) (P21452 whole entry): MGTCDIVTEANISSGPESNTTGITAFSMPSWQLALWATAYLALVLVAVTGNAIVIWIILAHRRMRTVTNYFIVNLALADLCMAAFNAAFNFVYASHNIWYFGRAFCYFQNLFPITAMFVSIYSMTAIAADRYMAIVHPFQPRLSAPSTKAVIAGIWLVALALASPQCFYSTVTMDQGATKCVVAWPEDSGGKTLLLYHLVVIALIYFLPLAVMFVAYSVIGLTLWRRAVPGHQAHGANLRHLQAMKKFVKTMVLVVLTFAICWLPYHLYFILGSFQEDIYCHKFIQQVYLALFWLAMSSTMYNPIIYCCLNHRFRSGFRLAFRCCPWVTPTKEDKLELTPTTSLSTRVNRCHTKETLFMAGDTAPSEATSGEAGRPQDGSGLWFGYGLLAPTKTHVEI
Sequence of EP4 (h) (P35408 whole entry): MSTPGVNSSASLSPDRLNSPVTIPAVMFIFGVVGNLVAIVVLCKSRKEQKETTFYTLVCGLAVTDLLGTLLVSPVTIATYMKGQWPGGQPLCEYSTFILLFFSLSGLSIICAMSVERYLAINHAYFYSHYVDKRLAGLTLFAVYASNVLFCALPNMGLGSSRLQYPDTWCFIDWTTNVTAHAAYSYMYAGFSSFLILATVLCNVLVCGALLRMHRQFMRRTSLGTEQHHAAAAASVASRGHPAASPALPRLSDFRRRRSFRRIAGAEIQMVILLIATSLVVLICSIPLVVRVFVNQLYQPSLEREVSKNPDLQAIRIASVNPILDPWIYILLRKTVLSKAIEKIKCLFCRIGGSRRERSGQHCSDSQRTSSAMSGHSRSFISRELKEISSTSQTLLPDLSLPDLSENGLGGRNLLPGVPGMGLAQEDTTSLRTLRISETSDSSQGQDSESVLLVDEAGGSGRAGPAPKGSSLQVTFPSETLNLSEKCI
Sequence of 5-HT7 (h) (P34969 whole entry): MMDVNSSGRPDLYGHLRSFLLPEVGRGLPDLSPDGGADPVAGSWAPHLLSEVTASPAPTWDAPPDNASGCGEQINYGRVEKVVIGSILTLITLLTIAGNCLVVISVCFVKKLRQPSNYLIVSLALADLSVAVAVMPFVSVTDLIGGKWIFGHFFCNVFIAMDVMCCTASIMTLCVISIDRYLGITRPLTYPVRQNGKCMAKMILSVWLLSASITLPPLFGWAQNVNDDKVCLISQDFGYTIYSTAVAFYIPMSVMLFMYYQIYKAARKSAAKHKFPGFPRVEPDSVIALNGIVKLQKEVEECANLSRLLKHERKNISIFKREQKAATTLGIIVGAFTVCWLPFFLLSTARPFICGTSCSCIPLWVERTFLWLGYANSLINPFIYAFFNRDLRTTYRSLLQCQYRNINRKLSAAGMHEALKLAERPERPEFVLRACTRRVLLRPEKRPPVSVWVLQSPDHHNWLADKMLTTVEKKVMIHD
Sequence of 5-HT2A (h) (P28223 whole entry): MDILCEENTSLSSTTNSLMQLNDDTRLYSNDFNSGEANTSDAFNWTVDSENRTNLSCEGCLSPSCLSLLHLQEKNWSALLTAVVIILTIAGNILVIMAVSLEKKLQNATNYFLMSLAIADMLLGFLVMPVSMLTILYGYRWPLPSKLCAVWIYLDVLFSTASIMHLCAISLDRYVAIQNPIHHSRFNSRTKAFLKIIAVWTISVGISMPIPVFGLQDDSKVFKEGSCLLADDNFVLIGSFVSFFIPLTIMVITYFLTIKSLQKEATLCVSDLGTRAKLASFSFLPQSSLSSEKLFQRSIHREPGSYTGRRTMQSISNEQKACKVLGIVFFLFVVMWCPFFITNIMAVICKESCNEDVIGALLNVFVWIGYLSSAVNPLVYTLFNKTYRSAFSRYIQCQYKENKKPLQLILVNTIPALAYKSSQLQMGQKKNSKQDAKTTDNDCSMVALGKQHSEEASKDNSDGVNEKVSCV

## CCN(CCN(C)C)C(=O)CNCc1cc(C(N)=O)ccn1 [KDOAM-25]
V1a (h)
  inhibition at 10 µM: -4%
[1]; Homo sapiens, MM1.S, after a delay of 5–7 days
  IC50: ~30 µM
[1]; MM1S, after 3 days
  effect on cell viability, in words: little effect on cell viability
H3K4me3 in MM1S cells
  H3K4me3 level compared with the vehicle control: approximately twice
Alpha 1 (non-selective)
  % Inhibition of reference (10 µM): -15%
Dopamine transporter (h)
  inhibition at 10 µM: 13%
FIH
  IC50: > 100 µM
5-HT1B
  inhibition at 10 µM: -1%
NK2 (h)
  inhibition at 10 µM: 3%
MINA53
  IC50: > 100 µM
EP4 (h)
  inhibition at 10 µM: -15%
Delta 2 (DOP) (h)
  inhibition at 10 µM: 2%
Y2 (h)
  inhibition at 10 µM: -1%
KV channel
  % Inhibition of reference (10 µM): -4%
BZD (central)
  % Inhibition of reference (10 µM): -42%
ETA (h)
  inhibition at 10 µM: -6%
M1 (h)
  inhibition at 10 µM: -18%
M3 (h)
  inhibition at 10 µM: 5%
Caco-2 cells
  Caco-2 A-B: < 0.76
  Caco-2 B-A: < 0.76
Caco-2 cells; passive permeation
  Caco-2 permeability, in words: low permeability region
[2]
  effect on viability of mesenchymal stem cells: does not decrease cell viability; also recorded: did not show the same decrease in viability
KDM5A-D
  IC50: < 0.1 µM
H2 (h)
  inhibition at 10 µM: -16%
NK3 (h)
  inhibition at 10 µM: -8%
[3]
  % Inhibition of reference (10 µM): -1%
Na+ channel (site 2)
  % Inhibition of reference (10 µM): 7%
5-HT transporter (h)
  inhibition at 10 µM: -2%
5-HT7 (h)
  inhibition at 10 µM: -10%
5-HT2A (h)
  inhibition at 10 µM: -6%
NTS1 (NT1) (h)
  inhibition at 10 µM: -12%
B2 (h)
  inhibition at 10 µM: -10%

Source: PMC5361737, “Potent and Selective KDM5 Inhibitor Stops Cellular Demethylation of H3K4me3 at Transcription Start Sites and Proliferation of MM1S Myeloma Cells” (Cell Chemical Biology, 2017)
